The supplement of paper PMC10307832

Key:
Assay in all cases: relative viability (nuclei count vs DMSO), 5 days (fraction); higher = more cells survive
AZ505 + Trametinib = compound: C1CCC(CC1)N(CCNCCC2=C3C(=C(C=C2)O)NC(=O)CO3)C(=O)CCNCCC4=CC(=C(C=C4)Cl)Cl [AZ505] + CC(=O)Nc1cccc(-n2c(=O)n(C3CC3)c(=O)c3c(Nc4ccc(I)cc4F)n(C)c(=O)c(C)c32)c1 [Trametinib] (partner 0.02 µM)
Outline: (§1)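 Lung cancer cell lines, seeded in 1536-well plates, were treated the following day by pin tool with a single drug or with five library-drug doses (not always all listed) in √10 steps on top of a fixed anchor-drug dose. Cells were fixed and nuclei stained in one step after 5 days, and nuclei were counted. Relative viability is the nuclei count for treated wells divided by that for vehicle wells, reported as medians of duplicate plates.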

Dactolisib = compound: Cn1c(=O)n(-c2ccc(C(C)(C)C#N)cc2)c2c3cc(-c4cnc5ccccc5c4)ccc3ncc21 [Dactolisib]
Outline: (§2)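 Lung cancer cell lines in 1536-well plates were kept overnight at 37 °C, then pinned with five library-drug doses (not always all listed) spaced by √10 on vehicle-anchored plates. After 5 days without medium change, cells were fixed, permeabilised and Hoechst-stained in one step, imaged at 4×, and nuclei were counted with MetaXpress. Viability is treated-well nuclei divided by vehicle-well nuclei, taken as the median over plates. Plates passed only with control CV below 25% and at least one doubling.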

AZ505 = compound: C1CCC(CC1)N(CCNCCC2=C3C(=C(C=C2)O)NC(=O)CO3)C(=O)CCNCCC4=CC(=C(C=C4)Cl)Cl [AZ505]
Outline: as §2

Dactolisib + Navitoclax = compound: Cn1c(=O)n(-c2ccc(C(C)(C)C#N)cc2)c2c3cc(-c4cnc5ccccc5c4)ccc3ncc21 [Dactolisib] + CC1(C)CCC(c2ccc(Cl)cc2)=C(CN2CCN(c3ccc(C(=O)NS(=O)(=O)c4ccc(N[C@H](CCN5CCOCC5)CSc5ccccc5)c(S(=O)(=O)C(F)(F)F)c4)cc3)CC2)C1 [Navitoclax] (partner 0.5 µM)
Outline: as §1

| Cell Line | relative viability (AZ505 + Trametinib; first compound 0.253 µM) | relative viability (AZ505 + Trametinib; first compound 0.8 µM) | relative viability (AZ505 + Trametinib; first compound 2.53 µM) | relative viability (AZ505 + Trametinib; first compound 8 µM) | relative viability (Dactolisib; 0.002 µM) | relative viability (Dactolisib; 0.006325 µM) | relative viability (Dactolisib; 0.02 µM) | relative viability (Dactolisib; 0.06325 µM) | relative viability (Dactolisib; 0.2 µM) | relative viability (AZ505; 0.08 µM) | relative viability (AZ505; 0.253 µM) | relative viability (AZ505; 0.8 µM) | relative viability (AZ505; 2.53 µM) | relative viability (AZ505; 8 µM) | relative viability (Dactolisib + Navitoclax; first compound 0.002 µM) | relative viability (Dactolisib + Navitoclax; first compound 0.006325 µM) | relative viability (Dactolisib + Navitoclax; first compound 0.02 µM) | relative viability (Dactolisib + Navitoclax; first compound 0.06325 µM) | relative viability (Dactolisib + Navitoclax; first compound 0.2 µM) | relative viability (AZ505 + Trametinib; first compound 0.08 µM) |
| --- | --- | --- | --- | --- | --- | --- | --- | --- | --- | --- | --- | --- | --- | --- | --- | --- | --- | --- | --- | --- |
| NCI-H1648 | 0.463 | 0.528 | 0.576 | 0.497 | 0.842 | 0.869 | 1.01 | 0.451 | 0.319 | 0.734 | 1.01 | 0.883 | 1.01 | 1.15 | – | – | – | – | – | – |
| SK-MES-1 | 0.531 | 0.532 | 0.508 | 0.584 | 1.1 | 0.983 | 0.914 | 0.542 | 0.339 | 0.92 | 0.953 | 0.909 | 0.943 | 0.935 | 1.34 | 1.17 | 1.1 | 0.574 | 0.55 | 0.513 |
| SK-LU-1 | 0.377 | 0.401 | 0.383 | 0.407 | 0.879 | 0.995 | 0.88 | 0.502 | 0.359 | 0.634 | 0.683 | 0.65 | 0.679 | 0.797 | 1.14 | 0.627 | 0.707 | 0.673 | 0.319 | 0.366 |
| HCC-366 | 0.331 | 0.281 | 0.289 | 0.332 | 0.975 | 1.04 | 1.05 | 0.734 | 0.569 | 0.982 | 0.956 | 0.99 | 0.897 | 1.01 | 1 | 0.961 | 1.07 | 0.67 | 0.498 | 0.288 |
| 201T | 0.716 | 0.722 | 0.705 | 0.711 | 1.02 | 1.01 | 0.992 | 0.863 | 0.636 | 0.962 | 0.998 | 0.98 | 0.974 | 1.01 | 1.18 | 1.22 | 1.14 | 1.17 | 0.943 | 0.688 |
| HCC-827 | 0.577 | 0.501 | 0.501 | 0.533 | 1.06 | 1.05 | 0.955 | 1.07 | 1.03 | 0.992 | 1.03 | 0.982 | 1.02 | 1.08 | 1.03 | 1.02 | 1.06 | 0.905 | 0.687 | 0.548 |
| NCI-H647 | 0.509 | 0.404 | 0.379 | 0.467 | 1.05 | 0.824 | 0.691 | 0.254 | 0.208 | 0.943 | 1.01 | 0.996 | 0.895 | 1.02 | 1.1 | 0.964 | 0.685 | 0.295 | 0.348 | 0.478 |
| NCI-H2023 | 0.548 | 0.525 | 0.682 | 0.569 | 0.827 | 0.875 | 0.579 | 0.166 | 0.12 | 0.901 | 0.936 | 0.931 | 0.923 | 0.957 | 1.11 | 0.95 | 0.816 | 0.204 | 0.201 | 0.576 |
| NCI-H520 | 0.638 | 0.661 | 0.639 | 0.699 | 1.01 | 0.777 | 0.764 | 0.243 | 0.2 | 0.92 | 1.07 | 0.86 | 1.08 | 1.04 | 1.01 | 0.871 | 0.633 | 0.261 | 0.184 | 0.766 |
| RERF-LC-KJ | 0.958 | 0.797 | 0.878 | 0.71 | 1 | 0.961 | 0.889 | 0.497 | 0.509 | 0.947 | 0.968 | 0.925 | 0.953 | 0.943 | 0.875 | 1.03 | 0.697 | 0.455 | 0.609 | 0.863 |
| A-427 | 0.776 | 0.631 | 0.738 | 0.743 | 1.1 | 0.908 | 0.936 | 0.572 | 0.586 | 0.932 | 0.958 | 0.886 | 1.08 | 0.99 | 0.953 | 0.951 | 0.915 | 0.393 | 0.349 | 0.705 |
| NCI-H441 | 0.385 | 0.536 | 0.568 | 0.465 | 1.28 | 1.02 | 0.925 | 0.48 | 0.298 | 0.865 | 1.09 | 1.07 | 0.997 | 1.24 | 0.851 | 0.416 | 0.577 | 0.237 | 0.303 | 0.413 |
| NCI-H1703 | – | – | – | – | – | 0.768 | 0.784 | 0.479 | 0.405 | 0.733 | 0.853 | 1.04 | 1.11 | 1.03 | 0.875 | 1.03 | 0.684 | 0.365 | 0.229 | – |
| NCI-H1792 | 0.426 | 0.482 | 0.422 | 0.435 | 1.04 | 0.635 | 0.551 | 0.317 | 0.175 | 0.757 | – | 0.803 | 0.947 | 0.945 | 0.823 | 0.692 | 0.582 | 0.381 | 0.181 | 0.426 |
